The values below come from US9545393B2, “Methods and compositions for treating pain” (The Board of Trustees of the Leland Stanford Junior …, priority 2012, dated 2017).

Entries after “also recorded” stand apart in the source; their conditions may differ.

The test system of assay [1] is ALDH2 *1/*2 heterozygous mice. The assay is described as follows: von Frey hair test, carrageenan-induced acute pain model, ALDH2 *1/*2 heterozygous mice. The class given is in vivo, mouse. The settings on record: von Frey hair (1.20 gram in FIG. 1E), Alda-1 2 mg/kg s.c.
The test system of a further assay is malondialdehyde (MDA). Briefly: Thiobarbituric acid-reactive substance assay (malondialdehyde) in paw homogenate. The settings on record: rats, 3 hours after carrageenan; P<0.05. Type of assay: in vivo, rat. The method, then:
Thiobarbituric acid-reactive substance assay. Thiobarbituric acid-reactive substance (TBARS) was measured using an Oxi-Tek TBARS assay kit (ZeptoMetrix, Buffalo, N.Y.). In brief, 100 μL of plantar homogenates were mixed with 100 μl sodium dodecyl sulfonate solution. TBA/buffer reagent was prepared by mixing 0.5 g thiobarbituric acid with 50 ml acetic acid and 50 ml NaOH. TBA/buffer reagent (2.5 ml) was added to 200 μL sample/sodium dodecyl sulfonate mixture and incubated at 95° C. in capped tubes for 60 min. The samples were cooled to room temperature in an ice bath for 10 min and centrifuged at 3,000 g for 15 min. The supernatants were removed, and fluorescence intensity was measured in semi-microcuvettes in a fluorometer (Bio-Rad Laboratories, Hercules, Calif.). The concentration of TBARS was expressed in pmol/mg protein by interpolation from a standard curve of malondialdehyde at 0-200 pmol concentrations. The results are expressed as percent control.

The conditions of assay [2]: previously shown (Chen 2008; Koda 2010); cited from earlier work.
For assay [3], the system named is 4-hydroxynonenal (4-HNE) protein adducts. Briefly: Western blot of 4-HNE protein adducts in inflamed paw. Type of assay: in vivo, rat. Conditions: rats, 3 hours after carrageenan; P<0.01. As to the method: Biochemical Studies In Rats and Mice. Protein was isolated from rat paw tissue at 3 hours after treatment or from liver tissue of mutant or wild type mice. Tissues were homogenized in buffer containing (Hepes 10 mM, NaCl 0.9%, EGTA 1 mM, DTPA 100 μM, Triton-X 1%, Protease and Phosphatase inhibitors (AEBSF, Aprotinin, Bestatin, E-64, Leupeptin, Pepstatin A, Sodium orthovanadate, Sodium molybdate, Sodium tartrate, Imidazole, Cantharidin, (−)-p-Bromolevamisole oxalate and Calyculin A). The samples were centrifuged at 700 g for 5 min at 4° C. Mitochondrial fraction from liver was obtained as previously described (Chen, et al. (2008) Activation of aldehyde dehydrogenase-2 reduces ischemic damage to the heart. Science 321, 1493-1495; Sun, L., et al. ALDH2 activator inhibits increased myocardial infarction injury by nitroglycerin tolerance. Sci Transl Med 3, 107ra111). Activation of aldehyde dehydrogenase-2 reduces ischemic damage to the heart. Science 2008; 321:1493-5). The protein concentration was determined in the supernatants by using Bradford (Bradford, M. M. (1976). A rapid and sensitive method for the quantitation of microgram quantities of protein utilizing the principle of protein-dye binding. Anal Biochem 72, 248-254).
Western blot analysis. […] Quantification analysis of blots was performed with Image J software, using GAPDH as a loading control.

For assay [4], the system named is early growth response protein 1 (EGR1). Briefly: EGR1 immunohistochemistry of L4-L6 spinal cord. The settings on record: rats, 3 hours after carrageenan; carrageenan alone increased ~5 fold. Type of assay: in vivo, rat. The method, then: Immunohistochemistry. Animals were anesthetized with ketamine (90 mg/kg) and xylazine (15 mg/kg) after 3 hours of the experimental protocol. Subsequently, animals were perfused with 4% paraformaldehyde (PFA) in 0.1 M phosphate buffer (PB, pH 7.4). Spinal cord sections (L4-L6) were removed, post-fixed for 4 h in PFA (4%), and transferred to a 30% sucrose solution in PB to ensure cryoprotection. […] The sections were immunostained for early growth response-1 gene (EGR1) expression, using a rabbit polyclonal antibody (Santa Cruz Biotechnology 1:500) in PB containing 0.3% Triton X-100 and 5% normal donkey serum. Incubations with primary antibody were conducted overnight at 24° C. The sections were then washed in PB and incubated with a biotinylated donkey anti-rabbit serum (Vector, Burlingame 1:200) in PB for 2 h at 24° C. The sections were washed again in PB and incubated with the avidin-biotin-peroxidase complex (ABC Elite, Vector Labs, USA). The sections were then reacted with 0.05% 3,3-diaminobenzidine and 0.01% hydrogen peroxide in PB. Intensification was conducted with 0.05% osmium tetroxide in water. The sections were dehydrated, cleared and mounted on a cover-slip. Normal rat serum served as control. Digital images of light microscopy were collected and cells with positive EGR were counted.

`O=C(NCc1ccc2c(c1)OCO2)c1c(Cl)cccc1Cl` [Alda-1, N-(1,3-benzodioxol-5-ylmethyl)-2,6-dichlorobenzamide]: the “Response to nociceptive stimulus / pain threshold” value in assay [1] is recorded as “significantly increased pain threshold; also recorded: bringing the response to wild type levels”. For the same molecule, in the assay on malondialdehyde (MDA), the “Malondialdehyde (MDA) levels in the inflamed paw” value is “reduced”. Further, the “Cardiovascular benefits after acute myocardial infarction” value in assay [2] was “reducing infarct size and arrhythmias”. Further, the “4-HNE-protein adduct levels in the inflamed paw” value in assay [3] was “reduced”. Further, the “EGR1 levels in L4-6 spinal cord (marker of hyperalgesia)” value in assay [4] is on record as “brought EGR1 levels to those seen in baseline; also recorded: brought back to basal levels”.
